What all share (assay type): functional
For test [1], the system named is Escherichia coli. Put plainly: Inhibitory activity against azide-resistant Escherichia coli J53 T35.
For test [2], the system named is Escherichia coli. Put plainly: Inhibitory activity against azide-resistant Escherichia coli J53 T07-006.
For test [3], the system named is Escherichia coli. Nature of the test: Inhibitory activity against Escherichia coli 12-1502.
In test [4] the test system is Klebsiella pneumoniae. Put plainly: Inhibitory activity against Klebsiella pneumoniae 35.
For test [5], the system named is Escherichia coli. Nature of the test: Inhibitory activity against azide-resistant Escherichia coli J53 T12-1502.
Test [6] relates to Klebsiella pneumoniae. Nature of the test: Inhibitory activity against Klebsiella pneumoniae 12-1183.
Test [7] relates to Escherichia coli. Nature of the test: Inhibitory activity against azide-resistant Escherichia coli J53.
For test [8], the system named is Escherichia coli. Put plainly: Inhibitory activity against azide-resistant Escherichia coli J53 T03-222.
In test [9] the test system is Klebsiella pneumoniae. Put plainly: Inhibitory activity against Klebsiella pneumoniae 07-006.
Test [10] relates to Escherichia coli. Put plainly: Inhibitory activity against azide-resistant Escherichia coli J53 T12-1183.
Test [11] deals with Klebsiella pneumoniae. Nature of the test: Inhibitory activity against Klebsiella pneumoniae 03-222.

Converted amounts (≈) assume the structure as drawn.

As to `CO/N=C(\C(=O)N[C@@H]1C(=O)N2C(C(=O)O)=C(COC(C)=O)CS[C@H]12)c1csc(N)n1` [CEFOTAXIME], the MIC was 16 µg/mL (≈ 35.1 µM) against Escherichia coli [1]; 16 µg/mL (≈ 35.1 µM) with Escherichia coli [2]; 64 µg/mL (≈ 141 µM) against Escherichia coli [3]; > 128 µg/mL with Klebsiella pneumoniae [4]; 64 µg/mL (≈ 141 µM) against Escherichia coli [5]; 16 µg/mL (≈ 35.1 µM) with Klebsiella pneumoniae [6]. Besides, the MIC was < 0.25 µg/mL in the test on Escherichia coli [7]; 2 µg/mL (≈ 4.39 µM) in the test with Escherichia coli [8]; 64 µg/mL (≈ 141 µM) against Klebsiella pneumoniae [9]; 4 µg/mL (≈ 8.78 µM) with Escherichia coli [10]; 4 µg/mL (≈ 8.78 µM) in the test on Klebsiella pneumoniae [11].
Consider `CO[C@@]1(NC(=O)Cc2cccs2)C(=O)N2C(C(=O)O)=C(COC(N)=O)CS[C@@H]21` [CEFOXITIN], for which the MIC is 4 µg/mL (≈ 9.36 µM) in the test on Escherichia coli [1]; 4 µg/mL (≈ 9.36 µM) in the test with Escherichia coli [2]; > 128 µg/mL in the test with Escherichia coli [3]; 32 µg/mL (≈ 74.9 µM) against Klebsiella pneumoniae [4]; > 128 µg/mL with Escherichia coli [5]; > 128 µg/mL in the test with Klebsiella pneumoniae [6]. In addition, the minimum inhibitory concentration (MIC) turned out to be 4 µg/mL (≈ 9.36 µM) against Escherichia coli [7]; 4 µg/mL (≈ 9.36 µM) against Escherichia coli [8]; 16 µg/mL (≈ 37.4 µM) against Klebsiella pneumoniae [9]; 32 µg/mL (≈ 74.9 µM) in the test with Escherichia coli [10]; 16 µg/mL (≈ 37.4 µM) against Klebsiella pneumoniae [11].
As for `CCn1cc(C(=O)O)c(=O)c2ccc(C)nc21` [NALIDIXIC ACID], the MIC against Escherichia coli [1] was 32 µg/mL (≈ 138 µM); against Escherichia coli [2], 32 µg/mL (≈ 138 µM); with Escherichia coli [3] it was 16 µg/mL (≈ 68.9 µM); in the test on Klebsiella pneumoniae [4], > 64 µg/mL; against Escherichia coli [5], 32 µg/mL (≈ 138 µM); in the test on Klebsiella pneumoniae [6], > 64 µg/mL. The MIC against Escherichia coli [7] is 8 µg/mL (≈ 34.4 µM); with Escherichia coli [8], 32 µg/mL (≈ 138 µM); against Klebsiella pneumoniae [9], > 64 µg/mL; against Escherichia coli [10], 32 µg/mL (≈ 138 µM); with Klebsiella pneumoniae [11], > 64 µg/mL.
Turning to `CC(C)(O/N=C(\C(=O)N[C@@H]1C(=O)N2C(C(=O)[O-])=C(C[n+]3ccccc3)CS[C@H]12)c1csc(N)n1)C(=O)O` [CEFTAZIDIME], the MIC in the test on Escherichia coli [1] is 128 µg/mL (≈ 234 µM); in the test with Escherichia coli [2], 128 µg/mL (≈ 234 µM); against Escherichia coli [3] it was 128 µg/mL (≈ 234 µM); against Klebsiella pneumoniae [4], > 128 µg/mL; against Escherichia coli [5], 64 µg/mL (≈ 117 µM); in the test on Klebsiella pneumoniae [6] it was 128 µg/mL (≈ 234 µM). The minimum inhibitory concentration (MIC) in the test with Escherichia coli [7] came out at 1 µg/mL (≈ 1.83 µM); against Escherichia coli [8], 64 µg/mL (≈ 117 µM); in the test on Klebsiella pneumoniae [9] it was 128 µg/mL (≈ 234 µM); in the test on Escherichia coli [10], 128 µg/mL (≈ 234 µM); in the test with Klebsiella pneumoniae [11], 128 µg/mL (≈ 234 µM).
As to `O=C(O)c1cn(C2CC2)c2cc(N3CCNCC3)c(F)cc2c1=O` [CIPROFLOXACIN], the MIC in the test on Klebsiella pneumoniae [4] is 16 µg/mL (≈ 48.3 µM); in the test with Klebsiella pneumoniae [6] it was > 16 µg/mL; against Klebsiella pneumoniae [9], 16 µg/mL (≈ 48.3 µM); against Klebsiella pneumoniae [11], 16 µg/mL (≈ 48.3 µM).
Take `COc1c(N2C[C@@H]3CCCN[C@@H]3C2)c(F)cc2c(=O)c(C(=O)O)cn(C3CC3)c12` [MOXIFLOXACIN]: the MIC against Escherichia coli [1] was 0.5 µg/mL (≈ 1.25 µM); in the test on Escherichia coli [2] it was 1 µg/mL (≈ 2.49 µM); in the test with Escherichia coli [3], 0.5 µg/mL (≈ 1.25 µM); with Klebsiella pneumoniae [4], > 8 µg/mL; in the test with Escherichia coli [5], 0.5 µg/mL (≈ 1.25 µM); against Klebsiella pneumoniae [6] it was > 8 µg/mL. In addition, the MIC against Escherichia coli [8] was found to be 0.5 µg/mL (≈ 1.25 µM); against Klebsiella pneumoniae [9], 8 µg/mL (≈ 19.9 µM); with Escherichia coli [10] it was 1 µg/mL (≈ 2.49 µM); in the test on Klebsiella pneumoniae [11], 8 µg/mL (≈ 19.9 µM).
As for `C[C@H]1COc2c(N3CCN(C)CC3)c(F)cc3c(=O)c(C(=O)O)cn1c23.C[C@H]1COc2c(N3CCN(C)CC3)c(F)cc3c(=O)c(C(=O)O)cn1c23.O` [LEVOFLOXACIN], the MIC in the test with Escherichia coli [1] is 0.25 µg/mL; against Escherichia coli [2] it was 0.25 µg/mL; against Escherichia coli [3], 0.25 µg/mL; against Klebsiella pneumoniae [4] it was 4 µg/mL; against Escherichia coli [5], 0.25 µg/mL; against Klebsiella pneumoniae [6], > 16 µg/mL. The minimum inhibitory concentration (MIC) against Escherichia coli [8] was determined as 0.25 µg/mL; in the test with Klebsiella pneumoniae [9] it was 8 µg/mL; with Klebsiella pneumoniae [11], 16 µg/mL.

Source of the values: ChEMBL document CHEMBL1142151, “Association of QnrB determinants and production of extended-spectrum beta-lactamases or plasmid-mediated AmpC beta-lactamases in clinical isolates of Klebsiella pneumoniae” (2007).
